Measured values reported in patent publication US11572399B2, “Long-acting GIP peptide analogues” (University of Copenhagen, priority 2017, dated 2023).
Where “and” joins values, the source holds several entries; their conditions need not be identical. Equal entries are not always repeated. Where two headings read alike, the source gives them in different places. Peptide text beside a SMILES is read from it. * marks the point of attachment. C16 diacid = O=C(O)CCCCCCCCCCCCCCC(=O)*; Stearoyl = CCCCCCCCCCCCCCCCCC(=O)*

Experiments:
[1] = target: T1, human GIP receptor (Homo sapiens, UniProt P48546); experiment: cAMP accumulation assay, antagonism of a GIP-mediated cAMP response (50-80% of max); type: cell-based; conditions: for cAMP - antagonisme fold (paired): fold vs GIP(3-30)NH2, Table 3b; for Fold change of IC50 versus GIP(5-30)NH2: fold change of IC50 from GIP(5-30)NH2
T1 construct: host or cells: COS-7, transient transfection (calcium phosphate), cDNA in pCMV-Script
T1 sequence (P48546 22-466): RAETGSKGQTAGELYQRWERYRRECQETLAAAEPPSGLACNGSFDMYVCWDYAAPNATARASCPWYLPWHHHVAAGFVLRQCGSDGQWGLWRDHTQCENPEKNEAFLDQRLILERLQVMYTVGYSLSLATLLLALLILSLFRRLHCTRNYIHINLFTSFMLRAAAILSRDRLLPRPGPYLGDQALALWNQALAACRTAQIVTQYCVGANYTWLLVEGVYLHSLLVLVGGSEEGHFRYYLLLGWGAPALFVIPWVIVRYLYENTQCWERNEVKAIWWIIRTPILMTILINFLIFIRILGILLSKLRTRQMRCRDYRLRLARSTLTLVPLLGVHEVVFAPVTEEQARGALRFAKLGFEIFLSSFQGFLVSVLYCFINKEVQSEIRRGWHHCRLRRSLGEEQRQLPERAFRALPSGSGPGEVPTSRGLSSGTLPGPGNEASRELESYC
Procedure: The day after, the cells were washed twice with Hepes buffered saline (HBS) buffer and incubated with HBS and 1 mM 3-isobutyl-1-methylxanthine (IBMX) for 30 min at 37° C. […] The HitHunter™ cAMP XS assay (DiscoveRx) was carried out according to the manufacturer's instructions.

[2] = target: T1, human GIP receptor; experiment: cAMP accumulation assay, agonism (ligand alone); type: cell-based; conditions: Table 1; for Emax: COS-7, intrinsic cAMP activity
[3] = target: T1, human GIP receptor; experiment: 125I-human GIP competition binding assay, in the presence and absence of 2% HSA; conditions: for Fold change HSA (2%)/Casein (0.1%): IC50 (plus HSA)/IC50 (minus HSA); for Binding fold (paired): fold decrease in affinity compared to GIP(3-30)NH2; for Fold change in affinity, IC50 (plus HSA)/IC50 (minus HSA): presence vs absence of 2% HSA, proxy for albumin binding; for Binding (+/−HSA) Fold: fold change +HSA/−HSA;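 for all read-outs here: nonspecific binding taken as radioligand bound to untransfected cells, IC50 obtained from nonlinear regression fits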
[4] = transiently transfected COS-7 cells, Table 1 and text, read-out: cAMP antagonism nM (IC50, antagonistic potency)
[5] = 0.1% casein, no HSA, Table 3b, read-out: Binding logIC50 0.1% casein (converted)
[6] = Table 3b, initial data, read-out: Binding IC50
[7] = binding in presence of 2% HSA, read-out: logIC50 2% HSA (converted)
[8] = heterologous competition binding, transiently transfected COS-7 cells expressing the human GIP receptor, read-out: Binding
[9] = given as log EC50 (negative sign), read-out: cAMP agonism EC50 (log) (converted)
[10] = binding in 0.1% casein (absence of HSA), log value, read-out: logIC50 0.1% casein (converted)

Compound	cAMP - antagonisme fold (paired) [1] [fold]	IC50 [1, 4] [nM]	Emax ([2]; COS-7 cells) [%]	IC50 [3, 5] [nM]	Fold change HSA (2%)/Casein (0.1%) [3]	IC50 [3, 6] [nM]	IC50 [3, 7] [nM]	Binding fold (paired) ([3]; Table 3b) [fold]	IC50 [3, 8] [nM]	Fold change in affinity, IC50 (plus HSA)/IC50 (minus HSA) [3] [fold]	Fold change of IC50 versus GIP(5-30)NH2 [1]	EC50 [2, 9]	Binding (+/−HSA) Fold [3]	IC50 [3, 10] [nM]	also measured
CCCCCCCCCCCCCC(=O)NCCCC[C@H](NC(=O)[C@H](CC(=O)O)NC(=O)[C@H](CCSC)NC(=O)[C@H](C)NC(=O)[C@@H](NC(=O)[C@H](CO)NC(=O)[C@H](Cc1ccc(O)cc1)NC(=O)[C@H](CC(=O)O)NC(=O)[C@H](CO)NC(=O)[C@@H](NC(=O)[C@H](Cc1ccccc1)NC(=O)[C@@H](NC(=O)CNC(=O)[C@@H](N)CCC(=O)O)[C@@H](C)O)[C@@H](C)CC)[C@@H](C)CC)C(=O)N[C@H](C(=O)N[C@@H](Cc1c[nH]cn1)C(=O)N[C@@H](CCC(N)=O)C(=O)N[C@@H](CCC(N)=O)C(=O)N[C@@H](CC(=O)O)C(=O)N[C@@H](Cc1ccccc1)C(=O)N[C@H](C(=O)N[C@@H](CC(N)=O)C(=O)N[C@@H](Cc1c[nH]c2ccccc12)C(=O)N[C@@H](CC(C)C)C(=O)N[C@@H](CC(C)C)C(=O)N[C@@H](C)C(=O)N[C@@H](CCC(N)=O)C(=O)N[C@@H](CCCCN)C(N)=O)C(C)C)[C@@H](C)CC [AT111, [hGIP(3-30)NH2—C14/16]]	3.3	22	0	407	5.1	261	2090	31	261	5.1					IC50 ([1]; given as log IC50 (negative sign), transiently transfected COS-7 cells, Table 1, read-out: cAMP antagonism log (converted)): 25.1 nM; IC50 ([3]; 2% HSA, Table 3b, read-out: Binding logIC50 2% HSA (converted)): 2090 nM
CC[C@H](C)[C@H](NC(=O)[C@H](CO)NC(=O)[C@H](Cc1ccc(O)cc1)NC(=O)[C@H](CC(=O)O)NC(=O)[C@H](CO)NC(=O)[C@@H](NC(=O)[C@H](Cc1ccccc1)NC(=O)[C@@H](N)[C@@H](C)O)[C@@H](C)CC)C(=O)N[C@@H](C)C(=O)N[C@@H](CCSC)C(=O)N[C@@H](CC(=O)O)C(=O)N[C@@H](CCCCN)C(=O)N[C@H](C(=O)N[C@@H](Cc1c[nH]cn1)C(=O)N[C@@H](CCC(N)=O)C(=O)N[C@@H](CCC(N)=O)C(=O)N[C@@H](CC(=O)O)C(=O)N[C@@H](Cc1ccccc1)C(=O)N[C@H](C(=O)N[C@@H](CC(N)=O)C(=O)N[C@@H](Cc1c[nH]c2ccccc12)C(=O)N[C@@H](CC(C)C)C(=O)N[C@@H](CC(C)C)C(=O)N[C@@H](CCCCNC(=O)CCCCCCCCCCCCCCC(=O)O)C(=O)N[C@@H](CCC(N)=O)C(=O)N[C@@H](CCCCN)C(N)=O)C(C)C)[C@@H](C)CC [AT188, [hGIP(5-30)NH2[A28K]-C16diacid/28]] (H-TFISDYSIAMDKIHQQDFVNWLLK(C16 diacid)QK-NH2; N-terminus assumed)		152	10		0.0						6.8	100 nM and 158 nM	3.2		Ki ([3]; absence of HSA): 144 nM; IC50 ([3]; heterologous competition binding, transiently transfected COS-7 cells expressing the human GIP receptor, log value of the nM column, read-out: Binding log (converted)): 200 nM and 183 nM
CC[C@H](C)[C@H](NC(=O)[C@H](CO)NC(=O)[C@H](Cc1ccc(O)cc1)NC(=O)[C@H](CC(=O)O)NC(=O)[C@H](CO)NC(=O)[C@@H](NC(=O)[C@H](Cc1ccccc1)NC(=O)[C@@H](N)[C@@H](C)O)[C@@H](C)CC)C(=O)N[C@@H](C)C(=O)N[C@@H](CCCCNC(=O)CCCCCCCCCCCCCCC(=O)O)C(=O)N[C@@H](CC(=O)O)C(=O)N[C@@H](CCCCN)C(=O)N[C@H](C(=O)N[C@@H](Cc1c[nH]cn1)C(=O)N[C@@H](CCC(N)=O)C(=O)N[C@@H](CCC(N)=O)C(=O)N[C@@H](CC(=O)O)C(=O)N[C@@H](Cc1ccccc1)C(=O)N[C@H](C(=O)N[C@@H](CC(N)=O)C(=O)N[C@@H](Cc1c[nH]c2ccccc12)C(=O)N[C@@H](CC(C)C)C(=O)N[C@@H](CC(C)C)C(=O)N[C@@H](C)C(=O)N[C@@H](CCC(N)=O)C(=O)N[C@@H](CCCCN)C(N)=O)C(C)C)[C@@H](C)CC [AT176, [hGIP(5-30)NH2[M14K]-C16diacid/14]] (H-TFISDYSIAK(C16 diacid)DKIHQQDFVNWLLAQK-NH2; N-terminus assumed)		121	12		4.9		562		114		3.8	100 nM	5.1	126	IC50 ([1]; antagonism of GIP-mediated cAMP response, COS-7 cells, read-out: cAMP accumulation IC50): 105 nM
CCCCCCCCCCCC(=O)NCCCC[C@H](NC(=O)[C@H](CC(=O)O)NC(=O)[C@H](CCSC)NC(=O)[C@H](C)NC(=O)[C@@H](NC(=O)[C@H](CO)NC(=O)[C@H](Cc1ccc(O)cc1)NC(=O)[C@H](CC(=O)O)NC(=O)[C@H](CO)NC(=O)[C@@H](NC(=O)[C@H](Cc1ccccc1)NC(=O)[C@@H](N)[C@@H](C)O)[C@@H](C)CC)[C@@H](C)CC)C(=O)N[C@H](C(=O)N[C@@H](Cc1c[nH]cn1)C(=O)N[C@@H](CCC(N)=O)C(=O)N[C@@H](CCC(N)=O)C(=O)N[C@@H](CC(=O)O)C(=O)N[C@@H](Cc1ccccc1)C(=O)N[C@H](C(=O)N[C@@H](CC(N)=O)C(=O)N[C@@H](Cc1c[nH]c2ccccc12)C(=O)N[C@@H](CC(C)C)C(=O)N[C@@H](CC(C)C)C(=O)N[C@@H](C)C(=O)N[C@@H](CCC(N)=O)C(=O)N[C@@H](CCCCN)C(N)=O)C(C)C)[C@@H](C)CC [AT119, [hGIP(5-30)NH2—C12/16]]		26	0		7.2									398	
CC[C@H](C)[C@H](NC(=O)[C@H](CO)NC(=O)[C@H](Cc1ccc(O)cc1)NC(=O)[C@H](CC(=O)O)NC(=O)[C@H](CO)NC(=O)[C@@H](NC(=O)[C@H](Cc1ccccc1)NC(=O)[C@@H](N)[C@@H](C)O)[C@@H](C)CC)C(=O)N[C@@H](C)C(=O)N[C@@H](CCSC)C(=O)N[C@@H](CC(=O)O)C(=O)N[C@@H](CCCCN)C(=O)N[C@H](C(=O)N[C@@H](Cc1c[nH]cn1)C(=O)N[C@@H](CCCCNC(=O)CCCCCCCCCCCCCCC(=O)O)C(=O)N[C@@H](CCC(N)=O)C(=O)N[C@@H](CC(=O)O)C(=O)N[C@@H](Cc1ccccc1)C(=O)N[C@H](C(=O)N[C@@H](CC(N)=O)C(=O)N[C@@H](Cc1c[nH]c2ccccc12)C(=O)N[C@@H](CC(C)C)C(=O)N[C@@H](CC(C)C)C(=O)N[C@@H](C)C(=O)N[C@@H](CCC(N)=O)C(=O)N[C@@H](CCCCN)C(N)=O)C(C)C)[C@@H](C)CC [AT179, [hGIP(5-30)NH2[Q19K]-C16diacid/19]] (H-TFISDYSIAMDKIHK(C16 diacid)QDFVNWLLAQK-NH2; N-terminus assumed)		89	32		3.6						2.1	100 nM	6.3		Ki ([3]; presence of 2% HSA): 2380 nM
CCCCCCCCCCCCCCCCCC(=O)NCCCC[C@H](NC(=O)[C@@H](NC(=O)[C@H](CCCCN)NC(=O)[C@H](CC(=O)O)NC(=O)[C@H](CCSC)NC(=O)[C@H](C)NC(=O)[C@@H](NC(=O)[C@H](CO)NC(=O)[C@H](Cc1ccc(O)cc1)NC(=O)[C@H](CC(=O)O)NC(=O)[C@H](CO)NC(=O)[C@@H](NC(=O)[C@H](Cc1ccccc1)NC(=O)[C@@H](NC(=O)CNC(=O)[C@@H](N)CCC(=O)O)[C@@H](C)O)[C@@H](C)CC)[C@@H](C)CC)[C@@H](C)CC)C(=O)N[C@@H](CCC(N)=O)C(=O)N[C@@H](CCC(N)=O)C(=O)N[C@@H](CC(=O)O)C(=O)N[C@@H](Cc1ccccc1)C(=O)N[C@H](C(=O)N[C@@H](CC(N)=O)C(=O)N[C@@H](Cc1c[nH]c2ccccc12)C(=O)N[C@@H](CC(C)C)C(=O)N[C@@H](CC(C)C)C(=O)N[C@@H](C)C(=O)N[C@@H](CCC(N)=O)C(=O)N[C@@H](CCCCN)C(N)=O)C(C)C [AT160, [hGIP(3-30)NH2[H18K]-C18/18]] (H-EGTFISDYSIAMDKIK(Stearoyl)QQDFVNWLLAQK-NH2; N-terminus assumed)	0.7	38	13	48.8		48.8		6	49	3.6					EC50 ([2]; COS-7 cells, read-out: cAMP agonism nM (EC50)): 962 nM
